Reference: publication PMC12249509, “Quinazoline Derivative kzl052 Suppresses Prostate Cancer by Targeting WRN Helicase to Stabilize DNA Replication Forks” (International Journal of Molecular Sciences, 2025)

Legend:
[1] = tested on: normal human liver cells LX2; assay: MTT normal cytotoxicity, LX2; type: cell-based; conditions: mean ± SD, n = 3
Experimental: (§1) Cell suspensions were prepared in a logarithmic growth phase and seeded in 96-well plates at a density of 5000–8000 cells/well for 12 h and treated with different concentrations of kzl052 for 48 h. A 5 mg/mL MTT dye solution (Solarbio, Beijing, China) was added to all cells at 37 °C for 4 h. Then DMSO was added after removing the supernatant, and the crystals were completely dissolved by shaking at 37 °C for 15 min. The absorbance was measured at 490 nm by a microplate reader (Gene, HongKong, China). The cell proliferation inhibition rate was calculated according to the following formula: (1-experimental group OD/control group OD) × 100% with DMSO as a negative control and the WRN inhibitor (NSC 617145, GLPBIO, Montclair, CA, USA) as a positive control.

[2] = tested on: normal human renal epithelial cells HK2; assay: MTT normal cytotoxicity, HK2; type: cell-based; conditions: Epithelial cell, mean ± SD, n = 3
Experimental: as §1

PC3 cells [3] = assay: MTT assay, PC3 cell growth; type: cell-based; conditions: Homo sapiens, PC-3, 24 h (Figure 1 legend), 48 h (method)
Experimental: as §1

LNCaP cells [4] = assay: MTT assay, LNCaP cell growth; type: cell-based; conditions: Homo sapiens, 24 h (Figure 1 legend), 48 h (method)
Experimental: as §1

WRN protein [5] = target: T1, WRN protein (Homo sapiens, UniProt Q14191); assay: Cellular thermal shift assay (CETSA); type: binding; conditions: PC3 cells, 100 nM, 2 h
T1 construct: endogenous in cells; host or cells: PC3
T1 sequence (Q14191 whole entry): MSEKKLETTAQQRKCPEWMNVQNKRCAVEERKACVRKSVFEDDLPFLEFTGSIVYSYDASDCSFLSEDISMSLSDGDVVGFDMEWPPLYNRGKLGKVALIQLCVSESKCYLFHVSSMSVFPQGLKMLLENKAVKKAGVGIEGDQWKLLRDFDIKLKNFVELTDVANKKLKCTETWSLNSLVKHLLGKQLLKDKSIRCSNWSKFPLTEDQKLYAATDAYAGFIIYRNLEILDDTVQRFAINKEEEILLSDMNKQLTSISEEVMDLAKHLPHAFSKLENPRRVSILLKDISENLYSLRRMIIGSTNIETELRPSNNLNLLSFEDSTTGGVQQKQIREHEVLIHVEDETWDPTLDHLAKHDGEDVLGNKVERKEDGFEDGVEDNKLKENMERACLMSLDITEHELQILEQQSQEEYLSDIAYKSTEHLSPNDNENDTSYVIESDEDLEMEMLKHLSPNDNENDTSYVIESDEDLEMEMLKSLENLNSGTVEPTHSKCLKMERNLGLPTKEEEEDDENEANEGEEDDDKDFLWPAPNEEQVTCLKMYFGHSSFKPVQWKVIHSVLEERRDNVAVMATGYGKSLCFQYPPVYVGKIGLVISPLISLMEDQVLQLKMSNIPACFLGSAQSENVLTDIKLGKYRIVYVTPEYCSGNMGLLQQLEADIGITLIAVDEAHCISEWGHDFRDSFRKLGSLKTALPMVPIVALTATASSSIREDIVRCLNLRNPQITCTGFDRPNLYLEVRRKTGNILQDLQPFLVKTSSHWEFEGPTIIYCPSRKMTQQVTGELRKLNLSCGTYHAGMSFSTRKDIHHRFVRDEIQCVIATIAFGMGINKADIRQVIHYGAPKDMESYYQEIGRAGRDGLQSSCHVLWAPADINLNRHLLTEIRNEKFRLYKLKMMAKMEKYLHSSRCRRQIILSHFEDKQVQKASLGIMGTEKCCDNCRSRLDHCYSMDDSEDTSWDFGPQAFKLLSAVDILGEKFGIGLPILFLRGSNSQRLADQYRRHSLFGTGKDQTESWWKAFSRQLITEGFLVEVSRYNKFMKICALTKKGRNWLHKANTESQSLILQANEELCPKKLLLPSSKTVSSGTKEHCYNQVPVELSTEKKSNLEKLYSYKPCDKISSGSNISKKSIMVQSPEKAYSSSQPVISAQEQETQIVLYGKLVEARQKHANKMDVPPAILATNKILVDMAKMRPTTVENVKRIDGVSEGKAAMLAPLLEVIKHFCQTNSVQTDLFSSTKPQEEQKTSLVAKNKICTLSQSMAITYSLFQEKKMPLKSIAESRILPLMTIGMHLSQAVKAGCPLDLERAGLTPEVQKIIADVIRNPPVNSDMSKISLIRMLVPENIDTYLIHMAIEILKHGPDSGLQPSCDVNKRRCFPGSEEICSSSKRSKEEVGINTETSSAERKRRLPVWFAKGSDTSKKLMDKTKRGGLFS
Experimental: PC3 cells were cultured and treated with 100 nM kzl052 for 2 h. The cells were collected into 1.5 mL EP tubes, treated with a metal bath at different temperatures (43 °C, 46 °C, 49 °C, 52 °C, and 55 °C) for 3 min, and balanced for 2 min at room temperature. The supernatant was collected by centrifugation after three cycles of liquid nitrogen in a 37 °C water bath, and then a SDS-loading buffer and denatured protein was added at 100 °C for 10 min. Finally, the content of the binding of the WRN protein was detected by Western blot.

WRN helicase = target: T2, WRN helicase (Homo sapiens, UniProt Q14191); assay: WRN-unwinding assay (WRN enzyme activity test); type: biochemical; conditions: Figure S2
T2 construct: ICE Bioscience Inc (Beijing, China)
T2 sequence (Q14191 whole entry): as above
Experimental: NSC617145 in WRN FI as s ay KZL -05 2 in WR N FI as s ay
Figure S2.The results of WRN-unwinding assay. WRN enzyme activity test were
performed by ICE Bioscience Inc (Beijing, China).

WRN-silenced PC3 cells = assay: MTT assay in WRN-silenced PC3 cells; type: cell-based, human; conditions: shWRN lentiviral transfection
Experimental: Human prostate cancer cell lines PC3 and LNCaP cells were stored in the Biology Laboratory of the Natural Products Research Center of Guizhou Province (Guiyang, China). Cells were cultured in DMEM supplemented with 10% fetal bovine serum (BI, Nahariya, Israel) and 1% penicillin and streptomycin (Solarbio, Beijing, China) and incubated at 37 °C under 5% CO2, 95% air, and 95% humidity. The pLV-shWRN-GFP-Puro and blank control plasmids were constructed by Chongqing UNIBIO Biotechnology Co., Ltd. (Chongqing, China). The transfection steps were based on previous published studies. The inhibitory effect of the WRN protein in PC3 cells was detected by a Western blot assay.
as §1, with “The cell proliferation inhibition rate was calculated according to the following formula: (1-experimental group OD/control group OD) × 100% with DMSO as a negative control and the WRN inhibitor (NSC 617145, GLPBIO, Montclair, CA, USA) as a positive control.” left out

WRN protein [6] = assay: Western blot of WRN protein level; type: cell-based; conditions: 24 h
PC3 cells [7] = assay: Bright field and Hoechst staining, PC3; type: cell-based, human; conditions: 24 h
Experimental: (§2) PC3 and LNCaP cells were cultured and treated with different concentrations of kzl052 for 24 h and then 5 μg/mL of a Hoechst 33258 dye solution (Solarbio, Beijing, China) was added for 5–10 min after PBS washing. The fluorescence microscope (Leica, Wetzlar, Germany) was used for photo observation.

LNCaP cells [8] = assay: Bright field and Hoechst staining, LNCaP; type: cell-based, human; conditions: 24 h
Experimental: as §2

PC3 cells [9] = assay: γ-H2A.X immunofluorescence (DNA damage), PC3; type: cell-based, human; conditions: 100 nM, 24 h
Experimental: (§3) Cell slides were prepared and treated with 100nM kzl052 for 24 h. A 4% PFA was added for fixation after PBS washing, and then the cells were treated with Triton X-100 (Sigma-Aldrich, Saint Louis, MO, USA) for 30 min. The cells were blocked with 4% BSA for 2 h and incubated overnight at 4 °C with a γ-H2A.X primary antibody (1:1000, CST, Boston, MA, USA). A fluorescent secondary antibody (1:50; CST) was added and incubated in the dark for 2 h. After washing with PBS, a 10 μg/mL DAPI staining solution was added and treated the cells for 5–10 min. The expression and localization of γ-H2A.X was detected by inverted fluorescence microscopy (Leica, Wetzlar, Germany).

LNCaP cells [10] = assay: γ-H2A.X immunofluorescence (DNA damage), LNCaP; type: cell-based, human; conditions: 100 nM, 24 h
Experimental: as §3

[11] = tested on: PARP1, Bax, PLK1, RB1, Bcl-2, SRC, PTEN, PCNA, RPA, FEN1, Mre11; assay: Western blot of apoptosis, RB signal and replication fork proteins; type: cell-based
Experimental: The cells treated by kzl052 were collected, washed by precooled PBS, and removed by centrifugation at 1000 g/5 min. A RIPA lysate (Solarbio, Beijing, China) was added for 30 min on ice. The protein concentration was determined by a BCA kit (Solarbio, Beijing, China) and denatured at 105 °C. The target proteins were isolated by SDS-PAGE gel electrophoresis and transferred to the PVDF membrane (Millipore, Bedford, MA, USA). A 5% BSA was added to block for 2 h. Primary antibodies (PNCA, RPA, FEN1, Mre11, PARP1, Bax, Bcl-2, PLK1, RB1, SRC, and PTEN; 1:1000 dilution, HUBIO, Hangzhou, China) were added and incubated at 4 °C overnight. The next day, the PVDF membrane with target proteins were washed by TBST and incubated with an HRP-labeled IgG secondary antibody (1:100,000 dilution, HUBIO, Hangzhou, China) for 2 h. After TBST washed, the target proteins were isolated and analyzed by a chemiluminescence instrument (BioRad, Hercules, CA, USA).

[12] = Acute toxicity assay in BALB/c mice; type: in vivo; conditions: mouse, in vivo; within 24 h, male BALB/c mice, one-time treatment
Experimental: (§4) The toxicity of kzl052 in vivo was tested by an acute toxicity analysis in male BALB/c mice. A total of 20 mice were divided into 5 groups randomly. Each group was given a one-time treatment of kzl052 concentrations at 0 mg/kg, 50 mg/kg, 100 mg/kg, 200 mg/kg, and 500 mg/kg. The survival or death status of mice within 24 h was observed and recorded. The survival and death rate of mice were calculated.

BALB/c mice = assay: Acute toxicity assay in BALB/c mice; type: in vivo; conditions: 24 h; for Death Number / Survival Number: 4 mice
Experimental: as §4

PC3 cells [13] = assay: PC3 xenograft in BALB/c-null mice; type: in vivo; conditions: 5 mg/kg intraperitoneally
Experimental: Male BALB/c-null mice (4 weeks and 18–20 g) were purchased from SiPeiFu Biotechnology Co., Ltd. (Beijing, China). All SPF-grade mice were fed in the animal room with an IVC system barrier environment (Natural Products Research Center of Guizhou Province). The ambient temperature was maintained at 22 ± 2 °C, the humidity was 40–60%, and the light–dark cycle was maintained for 12 h to simulate the normal external environment. The mice took food and water autonomously. Xenografts were performed by subcutaneously implanting PC3 cells (1 × 10^7/0.1 mL). When the tumor size was 100 mm^3, the mice were randomly divided into 2 groups (N = 8). One group was intraperitoneally injected with kzl052 (5 mg/kg), and the other group was given the same dose of the solvent. The body weight and tumor volume was recorded every two days. The tumor volume (mm^3) = 0.5 × long diameter × short diameter^2. At the end of the experiment, the mice were euthanized and dissected to measure the weight of tumor tissue, heart, liver, spleen, kidney, and lung.
The tumor tissue sections were placed sequentially in xylene I/10 min; xylene II/10 min; absolute ethanol I/5 min; absolute ethanol II/5 min; 95% ethanol/5 min; 90% ethanol/5 min; 80% ethanol/5 min; and 70% ethanol/5 min. Then the sections were treated in a hematoxylin staining solution (Solarbio, Beijing, China) for 3–5 min. The slices were treated by 1% hydrochloric acid alcohol for 5–10 s. The sections were treated in an eosin staining solution (Solarbio, Beijing, China) for 1–3 min. Next, the slices were dehydrated with 95% ethanol/5 min; anhydrous ethanol I/5 min; anhydrous ethanol/5 min; xylene I/5 min; and xylene II/5 min. Finally, the sections were sealed with a neutral gum (Solarbio, Beijing, China). The H&E staining results were photographed and analyzed under light microscopes (Leica, Wetzlar, Germany).
The tissue sections were roasted, dewaxed, hydrated, antigen repaired, blocked, and incubated with a polyclonal antibody (PNCA, RPA, Mre11, PARP1, and RB1 at a 1:50 dilution, HUBIO, and γ-H2A.X at a 1:50 dilution, CST) at 4 °C overnight. The HRP-labeled IgG secondary antibody (1:1000 dilution, HUBIO, Hangzhou, China) was incubated at 37 °C for 2 h, stained with DAB, and then stained with hematoxylin (Solarbio, Beijing, China) and sealed with a neutral rubber (Solarbio, Beijing, China). It was also observed and photographed under a microscope (Leica, Wetzlar, Germany). The immunohistochemical results were statistically analyzed using image Pro plus (V6.0) software.

Compound `CC(=O)O[C@@]12CO[C@@H]1C[C@H](O)[C@@]1(C)C(=O)[C@H](O)C3=C(C)[C@@H](OC(=O)[C@H](O)[C@@H](NC(=O)OC(C)(C)C)c4ccccc4)C[C@@](O)([C@@H](OC(=O)c4ccccc4)[C@H]21)C3(C)C` [Docetaxel, reference compound] has an IC50 [1] of 410 ± 110 nM and an IC50 [2] of 110 ± 10 nM.
Work on `CC(C)(CN1C(=O)C(Cl)=C(Cl)C1=O)CN1C(=O)C(Cl)=C(Cl)C1=O` [NSC 617145] yielded an IC50 [1] of 1810 ± 270 nM.
Work on `Cc1ccc2nc(C(F)(F)F)nc(N(C)c3ccc(OC(F)F)cc3)c2c1` [kzl052] yielded an IC50 (PC3 cells [3]) of 390 ± 10 nM, an IC50 (LNCaP cells [4]) of 110 ± 10 nM and an IC50 [1] of 3120 ± 90 nM. For the same compound, the IC50 [2] was 920 ± 240 nM, the “binding to WRN protein (CETSA)” value (WRN protein [5]) was “bound to the WRN protein” and the “effect on activity of WRN helicase” value (WRN helicase) was “did not affect the activity of WRN helicase”. The “sensitivity of WRN-silenced PC3 cells” value (WRN-silenced PC3 cells) was “more insensitive”, the WRN protein expression (WRN protein [6]) was “significantly inhibited” and the “cell death, PC3” value (PC3 cells [7]) was “promoted PC3 and LNCaP cell death”. The “cell death, LNCaP” value (LNCaP cells [8]) was “promoted PC3 and LNCaP cell death”, the “γ-H2A.X staining, PC3” value (PC3 cells [9]) was “significantly increased” and the “γ-H2A.X staining, LNCaP” value (LNCaP cells [10]) was “significantly increased”. The “expression of PARP1, Bax, PLK1, and RB1” value [11] was “significantly up-regulated”, the “expression of PCNA, RPA, and FEN1” value [11] was “significantly inhibited” and the “protein level of Mre11” value [11] was “up-regulated”. The “protein levels of Bcl-2, SRC, and PTEN” value [11] was “inhibited”, the LD50 at 24 h [12] was 200 to 500 mg/kg and the “Mortality Rate” value (BALB/c mice; 50 mg/kg) was 0%. For the same compound, the “Survival Rate” value (BALB/c mice; 50 mg/kg) was 100%, the “Death Number” value (BALB/c mice; 50 mg/kg) was 0 and the “Survival Number” value (BALB/c mice; 50 mg/kg) was 4. For the same compound, the “Mortality Rate” value (BALB/c mice; 100 mg/kg) was 0%, the “Survival Rate” value (BALB/c mice; 100 mg/kg) was 100% and the “Death Number” value (BALB/c mice; 100 mg/kg) was 0. For the same compound, the “Survival Number” value (BALB/c mice; 100 mg/kg) was 4, the “Mortality Rate” value (BALB/c mice; 200 mg/kg) was 0% and the “Survival Rate” value (BALB/c mice; 200 mg/kg) was 100%. The “Death Number” value (BALB/c mice; 200 mg/kg) was 0, the “Survival Number” value (BALB/c mice; 200 mg/kg) was 4 and the “Mortality Rate” value (BALB/c mice; 500 mg/kg) was 75%. For the same compound, the “Survival Rate” value (BALB/c mice; 500 mg/kg) was 25%, the “Death Number” value (BALB/c mice; 500 mg/kg) was 3 and the “Survival Number” value (BALB/c mice; 500 mg/kg) was 1. For the same compound, the “H&E staining compared with the control group” value (PC3 cells [13]) was “no significant difference”, the “effects on mouse body weight and internal organ morphology” value (PC3 cells [13]) was “minimal effects” and the “growth of PC3 cells in vivo (tumor volume, tumor quality)” value (PC3 cells [13]; PC3 xenograft) was “significantly inhibited”. For the same compound, the “DNA replication fork complexes in tumor tissues (immunohistochemistry)” value (PC3 cells [13]; γ-H2A.X, PARP1, RB1, PCNA, RPA, Mre11) was “promoted the instability of DNA replication fork complexes”.
